Source: patent US20200055839A1 (priority 2017, published 2020)

What follows are molecules tested on NL-RLuc virus (assay: Inhibition of HIV replication (NL-RLuc virus, luciferase readout in MT-2 cells)). Details: Human immunodeficiency virus 1, MT2, 120 h, MT-2 cells infected with NL-RLuc virus, 5 days of incubation, 10% FBS, at least 2 experiments.
Assay type: cell-based
Method in brief: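 MT-2 cells infected with NL4-3-derived virus carrying Renilla luciferase in place of part of nef, grown 5 days with serial compound dilutions in RPMI 1640/10% FBS. Virus growth read as luciferase expression. EC50 from median effect equation, at least 2 experiments.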

First: Cc1ccc(F)cc1CCOc1ncc(-c2cnc(C)c([C@H](OC(C)(C)C)C(=O)O)c2N2CCC(C)(C)CC2)cc1F [Example 401, (2S)-2-(tert-butoxy)-2-[4-(4,4-dimethylpiperidin-1-yl)-5′-fluoro-6′-[2-(5-fluoro-2-methylphenyl)ethoxy]-6-methyl-[3,3′-bipyridine]-5-yl]acetic acid]
Second: COc1cc(-c2cnc(C)c([C@H](OC(C)(C)C)C(=O)O)c2N2CCC(C)(C)CC2)cnc1OCC(C)C [Example 410, (S)-2-(tert-Butoxy)-2-(4-(4,4-dimethylpiperidin-1-yl)-6′-isobutoxy-5′-methoxy-6-methyl-[3,3′-bipyridin]-5-yl)acetic acid]
The EC50 of the first is 3-fold lower: 2 nM for the first, 6 nM for the second. The first is the more potent here.

First: Cc1ncc(-c2ccc(OCCCC(C)(C)C)cn2)c(N2CCC(C)(C)CC2)c1[C@H](OC(C)(C)C)C(=O)O [Example 351, (2S)-2-(tert-butoxy)-2-{5-[(4,4-dimethylpentyl)oxy]-4′-(4,4-dimethylpiperidin-1-yl)-6′-methyl-[2,3′-bipyridine]-5′-yl}acetic acid]
Second: Cc1cccc(Cl)c1CCOc1ccc(-c2cnc(C)c([C@H](OC(C)(C)C)C(=O)O)c2N2CCC(C)(C)CC2)nc1 [Example 284, (S)-2-(tert-Butoxy)-2-(5-(2-chloro-6-methylphenethoxy)-4′-(4,4-dimethylpiperidin-1-yl)-6′-methyl-[2, 3′-bipyridin]-5′-yl)acetic acid]
The EC50 of the first is 3.8-fold lower: 0.8 nM for the first, 3 nM for the second. The first is the more potent here.

`Cc1nc(OCCc2ccc(F)cc2)ccc1-c1cnc(C)c([C@H](OC(C)(C)C)C(=O)O)c1N1CCC(C)(C)CC1` [Example 260, (S)-2-(tert-Butoxy)-2-(4-(4,4-dimethylpiperidin-1-yl)-6′-(4-fluorophenethoxy)-2′,6-dimethyl-[3, 3′-bipyridin]-5-yl)acetic acid] and `Cc1[nH]c(=O)c([C@H](OC(C)(C)C)C(=O)O)c(N2CCC(C)(C)CC2)c1-c1ccc(OCCc2ccc(F)cc2)cc1` [Example 4, (S)-2-(tert-butoxy)-2-(4-(4,4-dimethylpiperidin-1-yl)-5-(4-(4-fluorophenethoxy)phenyl)-6-methyl-2-oxo-1,2-dihydropyridin-3-yl)acetic acid] are within 1.5-fold of each other in EC50: 11 nM for the first, 8 nM for the second.

First: Cc1nc(Nc2ccccn2)c(-c2ccc(OCCc3ccc(F)cc3)cc2)c(N2CCC(C)(C)CC2)c1[C@H](OC(C)(C)C)C(=O)O [Example 63, (S)-2-(tert-Butoxy)-2-(4-(4,4-dimethylpiperidin-1-yl)-5-(4-(4-fluorophenethoxy)phenyl)-2-methyl-6-(pyridin-2-ylamino)pyridin-3-yl)acetic acid]
Second: CC1(C)CCN(c2c(-c3ccc(OCCc4ccc(F)cc4)cc3)cncc2[C@H](OC(C)(C)C)C(=O)O)CC1 [Example 200, (S)-2-(tert-Butoxy)-2-(4-(4,4-dimethylpiperidin-1-yl)-5-(4-(4-fluorophenethoxy)phenyl)pyridin-3-yl)acetic acid]
The EC50 of the first is 3-fold higher: 6 nM for the first, 2 nM for the second.

First: Cc1ncc(-c2ccc(N(C)C)nc2)c(N2CCC(C)(C)CC2)c1[C@H](OC(C)(C)C)C(=O)O [Example 111, (S)-2-(tert-Butoxy)-2-(6′-(dimethylamino)-4-(4,4-dimethylpiperidin-1-yl)-6-methyl-[3, 3′-bipyridin]-5-yl)acetic acid]
Second: Cc1ncc(-c2ccc(C(F)CC(C)C)nc2)c(N2CCC(C)(C)CC2)c1[C@H](OC(C)(C)C)C(=O)O (stereo partly drawn) [Example 411, (2S)-2-(tert-Butoxy)-2-(4-(4,4-dimethylpiperidin-1-yl)-6′-(1-fluoro-3-methylbutyl)-6-methyl-[3, 3′-bipyridin]-5-yl)acetic acid]
The EC50 of the first is 10-fold lower: 2 nM for the first, 20 nM for the second.

Work on `CC1(C)CCN(c2c(-c3ccc(F)c(F)c3)cnc(Cl)c2[C@H](OC(C)(C)C)C(=O)O)CC1` [Example 208, (S)-2-(tert-Butoxy)-2-(2-chloro-5-(3,4-difluorophenyl)-4-(4,4-dimethylpiperidin-1-yl)pyridin-3-yl)acetic acid] yielded an EC50 of 35 nM.
